Where a SMILES comes first, the peptide text is derived from it.

The target of experiment [1] is T1, influx peptide transporter (Homo sapiens, UniProt Q12864).
T1 sequence (Q12864 23-832 K115E/E734D/E739A): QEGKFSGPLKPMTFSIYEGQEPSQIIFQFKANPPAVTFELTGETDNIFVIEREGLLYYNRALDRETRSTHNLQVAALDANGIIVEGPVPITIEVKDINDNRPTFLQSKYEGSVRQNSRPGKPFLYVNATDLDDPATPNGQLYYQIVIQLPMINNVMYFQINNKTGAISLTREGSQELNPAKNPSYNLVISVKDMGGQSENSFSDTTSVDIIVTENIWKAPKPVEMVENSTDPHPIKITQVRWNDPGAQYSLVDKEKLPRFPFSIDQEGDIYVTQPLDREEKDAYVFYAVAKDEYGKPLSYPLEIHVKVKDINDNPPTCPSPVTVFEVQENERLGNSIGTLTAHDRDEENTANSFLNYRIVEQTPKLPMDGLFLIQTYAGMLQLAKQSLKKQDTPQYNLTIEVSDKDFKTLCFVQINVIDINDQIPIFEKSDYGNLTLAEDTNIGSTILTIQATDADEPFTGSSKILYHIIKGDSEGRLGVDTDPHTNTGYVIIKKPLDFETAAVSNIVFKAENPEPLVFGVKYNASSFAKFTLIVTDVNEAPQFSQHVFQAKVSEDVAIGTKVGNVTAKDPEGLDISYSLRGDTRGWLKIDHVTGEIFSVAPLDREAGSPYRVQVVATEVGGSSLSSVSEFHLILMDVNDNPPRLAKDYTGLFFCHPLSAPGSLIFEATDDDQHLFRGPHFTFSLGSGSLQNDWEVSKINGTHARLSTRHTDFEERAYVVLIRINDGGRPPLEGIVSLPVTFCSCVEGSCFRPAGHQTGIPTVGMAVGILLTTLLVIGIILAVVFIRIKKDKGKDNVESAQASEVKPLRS
To be noted: Clone 9; 50 mM Gly-L-Pro.
Procedure: Chinese hamster ovary cells (CHO-K1, ATCC CCL 61) were transfected with plasmid pPSJ179 using a calcium precipitation protocol described in the Stratagene mammalian transfection kit (Stratagene Catalog #200285). […] The calcium precipitation protocol transfection method was carried out as follows. Subconfluent CHO-K1 cells (100 mm culture dish, 1-day post plating) were incubated for 20 minutes at 37° C. with 20 μg of a calcium-precipitated DNA sample. The DNA sample was either plasmid pPSJ179 or, as control, plasmid pRc/RSV. Subsequently, the cells were grown for 3 days in F12 medium containing 10% fetal bovine serum (Hyclone Laboratories Inc., Logan, Utah 84321). Afterwards, the medium was replaced with growth medium containing the selection agent, G-418 sulfate at 300 μg/ml (Gibco, Grand Island, N.Y.) and cells were grown in a 3% CO2 incubator at 37° C. for 13 days. Colonies which were selected for further study were grown for selected time periods in the selection medium at 37° C. in a 5% CO2 incubator. Transfectants were evaluated for expression of the influx peptide transporter using an enzyme linked immunosorbent assay (ELISA) and monoclonal antibody reactive with the influx peptide transporter.
The transfected CHO-K1 cells (~0.5 to 1×10^5 cells per well) were grown for 3 days in a Costar 24-well plate as described above. […]

Experiment [2] concerns control CHO-K1 cells. Nature of the experiment: [14C]cephalexin uptake by control CHO-K1 cells transfected with plasmid pRc/RSV. In kind it is in vitro ADME, Chinese hamster. As to conditions: Gly-L-Pro coincubation.

In the case of `NCC(=O)N1CCC[C@H]1C(=O)O` [Gly-L-Pro] (H-Gly-Pro-OH), in experiment [1], the “inhibition of uptake of 1 mM cephalexin” value is given as “inhibited”. In addition, the “inhibition of transport of 1 mM [14C]cephalexin” value in experiment [2] is “not inhibited”.

The values above are taken from patent US5710018A, “Mammalian influx peptide transporter” (Eli Lilly and Company, priority 1995, dated 1998).
